The record followed here is patent US8293729B2 (Boehringer Ingelheim International GmbH, priority 2009, dated 2012).

One assay addresses T1, human GPR119 receptor (Homo sapiens, UniProt Q8TDV5, S329A/T327A).
T1 construct: N-terminal leader […]; expressed in transfected cells
T1 sequence (Q8TDV5 with tags, fused parts or gaps T327A/S329A): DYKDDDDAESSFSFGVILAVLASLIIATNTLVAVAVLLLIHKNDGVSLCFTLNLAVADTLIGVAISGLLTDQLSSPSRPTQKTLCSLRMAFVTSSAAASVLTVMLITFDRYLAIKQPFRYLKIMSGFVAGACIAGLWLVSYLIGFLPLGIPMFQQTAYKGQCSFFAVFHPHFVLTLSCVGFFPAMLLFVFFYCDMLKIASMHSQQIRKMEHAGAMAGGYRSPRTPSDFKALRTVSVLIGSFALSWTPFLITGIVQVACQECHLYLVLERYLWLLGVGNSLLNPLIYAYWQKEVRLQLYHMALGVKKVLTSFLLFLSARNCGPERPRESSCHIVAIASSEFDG
The experiment in a line: cAMP assay (LANCE cAMP-384) in HEK293 cells stably expressing mutant human GPR119 receptor. The assay is classed as cell-based. The settings on record: HEK293, 20 min; 10 μM; the 30th table; read-out: stimulation in % at 10 μM. A digest of the protocol:
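Agonist EC50 came from nonlinear regression over 12 concentrations (30 μM–100 pM), with % stimulation at 10 μM where no EC50 was obtained. Cells: stable HEK293 with mutant human GPR119 (T327A/S329A), 20 min compound at 37° C; cAMP read by LANCE kit with standard curve.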
Take `CC(C)OC(=O)N1CCC(ON=C2CCN(c3ncc(CN4CCCC4=O)cc3F)CC2)CC1` [Example 54-4]: the activation at 10 µM stood at 93%.

The same assay, now with this note: HEK293, 20 min; at 10 μM; printed in EC50 column of the 36th table; read-out: stimulation in % at 10 μM.
For the molecule `CC(C)CN1CCC(ON=C2CCN(c3ccc(S(C)(=O)=O)cc3F)CC2)CC1` [Example 66-21], the activation at 10 µM came out at 64%.
Same read-out and setting: under `CS(=O)(=O)c1ccc(N2CCC(=NOC3CCN(Cc4ccc5c(c4)CCO5)CC3)CC2)c(F)c1` [Example 66-35] stands 61%.
Still for that read-out and setting: in the case of `CN(C)c1ccc(CN2CCC(ON=C3CCN(c4ccc(S(C)(=O)=O)cc4F)CC3)CC2)cc1` [Example 66-36] it was 83%.

The assay is the same for the next values; noted with them: cAMP accumulation, HEK293 cells stably expressing mutant human GPR119; read-out: EC50.
In the case of `CC(C)OC(=O)N1CCC(ON=C2CCN(c3ccc(S(C)(=O)=O)cc3F)CC2)CC1` [Example 2-1, 4-[1-(2-Fluoro-4-methanesulfonyl-phenyl)-piperidin-4-ylideneaminooxy]-piperidine-1-carboxylic acid isopropyl ester], the EC50 is 47 nM.
On the same count and under the same terms, in the case of `CC(C)OC(=O)N1CCC(ON=C2CCN(c3cc(F)c(S(C)(=O)=O)cc3F)CC2)CC1` [Example 2-60] it was 28 nM.
The same measure, in the same setting: in the case of `CC(C)OC(=O)N1CCC(ON=C2CCN(c3nccc(N(C)C)n3)CC2)CC1` [Example 2-44] it was more than 10000 nM; in that of `CC(C)OC(=O)N1CCC(ON=C2CCN(c3cc(F)c(Cn4nccn4)cc3F)CC2)CC1` [Example 14-13], 16 nM.
`CC(C)OC(=O)N1CCC(ON=C2CCN(c3cc(F)c(CS(=O)(=O)C4CC4)cc3F)CC2)CC1` [Example 14-3]: the EC50 came out at 19 nM.
Consider `CC(C)OC(=O)N1CCC(ON=C2CCN(c3cc(F)c(-c4ccoc4)cc3F)CC2)CC1` [Example 27-3], for which the EC50 worked out at 591 nM.
On the same count and under the same terms, in the case of `CC(C)OC(=O)N1CCC(ON=C2CCN(c3cc(F)c(N4CCCC4=O)cc3F)CC2)CC1` [Example 22-7] it was 157 nM; in that of `CC(C)OC(=O)N1CCC(ON=C2CCN(c3ccc(CO)c(Cl)n3)CC2)CC1` [Example 2-26], 758 nM; in that of `CC(C)OC(=O)N1CCC(ON=C2CCN(c3cc(F)c(N(S(C)(=O)=O)S(C)(=O)=O)cc3F)CC2)CC1` [Example 2-63], more than 10000 nM.
The same measure, in the same setting: in the case of `CC(C)OC(=O)N1CCC(ON=C2CCN(c3cc(F)c(CN(C)S(C)(=O)=O)cc3F)CC2)CC1` [Example 18-2] it was 150 nM.
The same measure, in the same setting: in the case of `CC(C)OC(=O)N1CCC(ON=C2CCN(c3ncc(Br)cn3)CC2)CC1` [Example 2-17] it was 1180 nM; in that of `CC(=O)N(C)Cc1cc(F)c(N2CCC(=NOC3CCN(C(=O)OC(C)C)CC3)CC2)cc1F` [Example 18-1, 4-(1-{4-[(Acetyl-methyl-amino)-methyl]-2,5-difluoro-phenyl}-piperidin-4-ylideneaminooxy)-piperidine-1-carboxylic acid isopropyl ester], 127 nM; in that of `CC(C)OC(=O)N1CCC(ON=C2CCN(c3cc(F)c(-c4cccs4)cc3F)CC2)CC1` [Example 27-1, 4-[1-(2,5-Difluoro-4-thiophen-2-yl-phenyl)-piperidin-4-ylideneaminooxy]-piperidine-1-carboxylic acid isopropyl ester], 201 nM.
For the molecule `Cc1cccc(N2CCC(=NOC3CCN(C(=O)OC(C)C)CC3)CC2)n1` [Example 2-8], the EC50 was more than 10000 nM.

The same assay, now with this note: the 15th table; read-out: EC50.
Consider `CC(C)OC(=O)N1CCC(ON=C2CCN(c3cc(F)c(C(=O)N4CCC(CN5CCCC5)CC4)cc3F)CC2)CC1` [Example 29-48], for which the EC50 stood at 69 nM.
In the case of `CC(C)OC(=O)N1CCC(ON=C2CCN(c3cc(F)c(C(=O)N4CCC[C@H]4CN)cc3F)CC2)CC1` [Example 29-58], the EC50 was 189 nM.

Staying with this assay, now noted: the 19th table; unit inferred; read-out: EC 50.
For the molecule `CCc1cnc(N2CCC(ON=C3CCN(c4cc(F)c(C(=O)NCC5COCCN5)cc4F)CC3)CC2)nc1` (stereo not drawn) [Example 29-87], the EC50 is 128 nM.
With `CCc1cnc(N2CCC(ON=C3CCN(c4cc(F)c(C(=O)NCC5CCCN5C)cc4F)CC3)CC2)nc1` (stereo not drawn) [Example 29-137], the EC50 was 212 nM.
In the case of `CCc1cnc(N2CCC(ON=C3CCN(c4cc(F)c(C(=O)N5CCC[C@@H]5CNC)cc4F)CC3)CC2)nc1` [Example 29-135], the EC50 came to 297 nM.
On to `CCc1cnc(N2CCC(ON=C3CCN(c4cc(F)c(C(=O)N5C[C@@H]6C[C@H]5CN6)cc4F)CC3)CC2)nc1` [Example 29-115], for which the EC50 worked out at 2010 nM.
Same read-out and setting: in the case of `CCc1cnc(N2CCC(ON=C3CCN(c4cc(F)c(C(=O)N5CC[C@H](CN)C5)cc4F)CC3)CC2)nc1` [Example 29-120] it was 202 nM.

Still in this assay, the particulars now being: the 27th table; read-out: EC50.
For the molecule `CC(C)OC(=O)N1CCC(ON=C2CCN(c3cc(F)c(CO)cc3F)CC2)CC1` [Example 48-1, 4-[1-(2,5-Difluoro-4-hydroxymethyl-phenyl)-piperidin-4-ylideneaminooxy]-piperidine-1-carboxylic acid isopropyl ester], the EC50 was found to be 9 nM.

Still in this assay, the particulars now being: the 32nd table; read-out: EC50.
Turning to `Cc1csc(N2CCC(ON=C3CCN(c4ccc(S(C)(=O)=O)cc4F)CC3)CC2)n1` [Example 63-17], the EC50 was more than 10000 nM.

Still in this assay, the particulars now being: the 33rd table; read-out: EC50.
For the molecule `Cc1ncccc1COC(=O)N1CCC(ON=C2CCN(c3ccc(S(C)(=O)=O)cc3F)CC2)CC1` [Example 64-26], the EC50 is more than 10000 nM.
Turning to `CCCCOC(=O)N1CCC(ON=C2CCN(c3ccc(S(C)(=O)=O)cc3F)CC2)CC1` [Example 64-45], the EC50 turned out to be 54 nM.
Same read-out and setting: in the case of `CCOC(=O)C1CC1COC(=O)N1CCC(ON=C2CCN(c3ccc(S(C)(=O)=O)cc3F)CC2)CC1` (stereo not drawn) [Example 64-31] it was 107 nM; in that of `CCOCCOC(=O)N1CCC(ON=C2CCN(c3ccc(S(C)(=O)=O)cc3F)CC2)CC1` [Example 64-10], 1280 nM.
Still for that read-out and setting: under `CN(C)CCCCOC(=O)N1CCC(ON=C2CCN(c3ccc(S(C)(=O)=O)cc3F)CC2)CC1` [Example 64-21] stands more than 10000 nM; under `CC(C)CCOC(=O)N1CCC(ON=C2CCN(c3ccc(S(C)(=O)=O)cc3F)CC2)CC1` [Example 64-40], 89 nM.
Still for that read-out and setting: in the case of `CS(=O)(=O)c1ccc(N2CCC(=NOC3CCN(C(=O)OCCN4CCCC4)CC3)CC2)c(F)c1` [Example 64-20] it was more than 10000 nM; in that of `CN1CCC(OC(=O)N2CCC(ON=C3CCN(c4ccc(S(C)(=O)=O)cc4F)CC3)CC2)C1` (stereo not drawn) [Example 64-13], more than 10000 nM.

The assay is the same for the next values; noted with them: the 34th table, compounds 65-1 to 65-24; read-out: EC50.
On to `CS(=O)(=O)c1ccc(N2CCC(=NOC3CCN(C(=S)NC4CCCCC4)CC3)CC2)c(F)c1` [Example 65-9], for which the EC50 came to 1800 nM.
Same read-out and setting: under `CS(=O)(=O)c1ccc(N2CCC(=NOC3CCN(S(=O)(=O)c4ccccc4)CC3)CC2)c(F)c1` [Example 65-18] stands 1100 nM.

The assay is the same for the next values; noted with them: the 36th table, compounds 66-1 to 66-51; read-out: EC50.
With `Cn1cccc1CN1CCC(ON=C2CCN(c3ccc(S(C)(=O)=O)cc3F)CC2)CC1` [Example 66-1, 1-(2-Fluoro-4-methanesulfonyl-phenyl)-piperidin-4-one O-[1-(1-methyl-1H-Pyrrol-2-ylmethyl)-piperidin-4-yl]-oxime], the EC50 was more than 10000 nM.
On the same count and under the same terms, in the case of `CC(C)Oc1ccc(CN2CCC(ON=C3CCN(c4ccc(S(C)(=O)=O)cc4F)CC3)CC2)cc1` [Example 66-40] it was 332 nM; in that of `CS(=O)(=O)c1ccc(N2CCC(=NOC3CCN(Cc4ccc(OC(F)(F)F)cc4)CC3)CC2)c(F)c1` [Example 66-42], 503 nM; in that of `CS(=O)(=O)c1ccc(N2CCC(=NOC3CCN(Cc4ncco4)CC3)CC2)c(F)c1` [Example 66-20], more than 10000 nM.
On the same count and under the same terms, under `COc1ccc(CN2CCC(ON=C3CCN(c4ccc(S(C)(=O)=O)cc4F)CC3)CC2)cc1F` [Example 66-38] stands 435 nM.

The assay is the same for the next values; noted with them: the 37th table, compounds 66-52 to 66-64; read-out: EC50.
On to `Cc1ccc(CN2CCC(ON=C3CCN(c4cc(F)c(S(C)(=O)=O)cc4F)CC3)CC2)cc1` [Example 66-54], for which the EC50 is 44 nM.
On to `CCCc1ccc(CN2CCC(ON=C3CCN(c4cc(F)c(S(C)(=O)=O)cc4F)CC3)CC2)cc1F` [Example 66-60], for which the EC50 is 31 nM.

The same assay, now with this note: the 38th table, compounds 66-65 to 66-72; read-out: EC50.
Take `CNC(=O)c1cc(F)c(N2CCC(=NOC3CCN(Cc4ccc(Cl)cc4)CC3)CC2)cc1F` [Example 66-68]: the EC50 was 365 nM.

Staying with this assay, now noted: the 43rd table, compounds 75-1 to 75-38; read-out: EC50.
As for `CC(C)OC(=O)N1CCC(ON=C2CCN(c3cc(F)c(CC(=O)N4CCCCC4CN(C)C)cc3F)CC2)CC1` (stereo not drawn) [Example 75-36], the EC50 amounted to 322 nM.
As for `CC(C)OC(=O)N1CCC(ON=C2CCN(c3cc(F)c(CC(=O)N4CCC[C@H](N)C4)cc3F)CC2)CC1` [Example 75-13], the EC50 came out at 116 nM.
Still for that read-out and setting: in the case of `CC(C)OC(=O)N1CCC(ON=C2CCN(c3cc(F)c(CC(=O)N4CCC[C@H]4CN4CCCC4)cc3F)CC2)CC1` [Example 75-29] it was 2910 nM; in that of `CC(C)OC(=O)N1CCC(ON=C2CCN(c3cc(F)c(CC(=O)NC4CCNCC4)cc3F)CC2)CC1` [Example 75-18], 98 nM.

The same assay, now with this note: the 44th table, compounds 77-1 to 77-14; read-out: EC50.
As for `CCc1cnc(N2CCC(ON=C3CCN(c4cc(F)c(CC(=O)N5CC[C@@H](N)C5)cc4F)CC3)CC2)nc1` [Example 77-11], the EC50 was 47 nM.
Still for that read-out and setting: in the case of `CCc1cnc(N2CCC(ON=C3CCN(c4cc(F)c(CC(=O)N5CC[C@H](CN)C5)cc4F)CC3)CC2)nc1` [Example 77-9] it was 8 nM.
